# Experimental data as given in patent US10072006B2 (MUTABILIS, priority 2015, dated 2018).
# Key:
# OXA-48 = target: T1, OXA-48 (Klebsiella pneumoniae, UniProt Q6XEC0); assay: β-lactamase inhibitory activity, determination of IC50 (nitrocefin hydrolysis); assay type: biochemical
# T1 construct: made in house; host or cells: E. coli
# SHV-1 = target: T2, SHV-1 (Klebsiella pneumoniae, UniProt P0AD64); assay: as above; assay type: biochemical
# T2 construct: made in house; host or cells: E. coli
# OXA-1 = target: T3, OXA-1 (Escherichia coli, UniProt P13661); assay: as above; assay type: biochemical
# T3 construct: made in house; host or cells: E. coli
# TEM-1 = target: T4, TEM-1 (Escherichia coli, UniProt P62593); assay: as above; assay type: biochemical; conditions: class (A), 30 min pre-incubation
# T4 construct: made in house; host or cells: E. coli
# AmpC (PAE) = AmpC (PAE) (Pseudomonas aeruginosa, UniProt P24735); assay: biochemical
# KPC-2 = target: T5, KPC-2 (Klebsiella pneumoniae, UniProt Q9F663); assay: β-lactamase inhibitory activity, determination of IC50 (nitrocefin hydrolysis); assay type: biochemical
# T5 construct: made in house; host or cells: E. coli
# AmpC (P99) = AmpC (P99) (Enterobacter cloacae, UniProt P05364); assay: biochemical
# [1] = test system: E. coli 190317 (TEM-1, SHV-12, CTX-M-15, OXA-1); assay: microbe, parasite or virus in culture; assay type: cell-based
# Procedure: (§1) Briefly, compounds alone according to the invention were prepared in DMSO and spotted (2 μL each) on sterile polystyrene plates (Corning, 3788). […] Microplates were incubated for 16-20 h at 35° C. in ambient air. The MIC of the compounds was defined as the lowest concentration of said compounds that prevented bacterial growth as read by visual inspection.
# OXA-15 = target: T6, OXA-15 (Pseudomonas aeruginosa, UniProt Q51574); assay: β-lactamase inhibitory activity, determination of IC50 (nitrocefin hydrolysis); assay type: biochemical
# T6 construct: made in house; host or cells: E. coli
# OXA-11 = target: T7, OXA-11 (Pseudomonas aeruginosa, UniProt Q06778); assay: as above; assay type: biochemical
# T7 construct: made in house; host or cells: E. coli
# CTX-M-15 = target: T8, CTX-M-15 (Escherichia coli, UniProt Q9EXV5); assay: as above; assay type: biochemical
# T8 construct: made in house; host or cells: E. coli
# [2] = test system: P. aeruginosa UFR90 (Derepressed ampC, OprD-); assay: MIC of compounds and synergy with ceftazidime (broth microdilution); assay type: cell-based; conditions: MIC of ceftazidime with compound fixed at 4 μg/mL; strain UFR90 (P. aeruginosa)
# Procedure: as §1
# [3] = test system: E. cloacae P99 (Derepressed ampC); assay: as above; assay type: cell-based; conditions: strain P99 (E. cloacae)
# Procedure: as §1
# [4] = test system: P. aeruginosa CIP105250 (OXA-15); assay: as above; assay type: cell-based; conditions: strain CIP105250 (P. aeruginosa)
# Procedure: as §1
# [5] = test system: K. pneumoniae BAA-1898 (TEM-1, SHV-11, SHV-12, KPC-2); assay: as above; assay type: cell-based; conditions: strain BAA-1898 (K. pneumoniae)
# Procedure: as §1
# [6] = test system: E. coli 131119 (TEM-1, OXA-48); assay: as above; assay type: cell-based; conditions: Escherichia coli, 18 h; strain 131119 (E. coli); read-out: MIC compounds of the invention alone
# Procedure: as §1
# [7] = test system: P. aeruginosa UFR47 (VIM-1); assay: as above; assay type: cell-based; conditions: MIC of ceftazidime with compound fixed at 4 μg/mL; strain UFR47 (P. aeruginosa)
# Procedure: as §1
# [8] = test system: P. aeruginosa UFR93 (Derepressed ampC, OprD-, MexAB+, MexXY+); assay: as above; assay type: cell-based; conditions: MIC of ceftazidime with compound fixed at 4 μg/mL; strain UFR93 (P. aeruginosa)
# Procedure: as §1
# [9] = test system: P. aeruginosa UFR59 (IMP-29); assay: as above; assay type: cell-based; conditions: MIC of ceftazidime with compound fixed at 4 μg/mL; strain UFR59 (P. aeruginosa)
# Procedure: as §1
# [10] = test system: P. aeruginosa CIP107051 (TEM-24); assay: as above; assay type: cell-based; conditions: strain CIP107051 (P. aeruginosa)
# Procedure: as §1
# [11] = test system: K. pneumoniae 6299 (TEM-1, SHV-11, OXA-163); assay: as above; assay type: cell-based; conditions: strain 6299 (K. pneumoniae)
# Procedure: as §1
# [12] = test system: P. aeruginosa UFR48 (VIM-2); assay: as above; assay type: cell-based; conditions: MIC of ceftazidime with compound fixed at 4 μg/mL; strain UFR48 (P. aeruginosa)
# Procedure: as §1
# [13] = test system: P. aeruginosa UFR92 (Derepressed ampC, OprD-); assay: as above; assay type: cell-based; conditions: MIC of ceftazidime with compound fixed at 4 μg/mL; strain UFR92 (P. aeruginosa)
# Procedure: as §1
# [14] = test system: P. aeruginosa UFR35 (OXA-23); assay: as above; assay type: cell-based; conditions: MIC of ceftazidime with compound fixed at 4 μg/mL; strain UFR35 (P. aeruginosa)
# Procedure: as §1
# E. coli RGN238 (OXA-1) = assay: as above; assay type: cell-based; conditions: Escherichia coli, 18 h; strain RGN238 (E. coli); read-out: MIC compounds of the invention alone
# Procedure: as §1
# [15] = MIC of ceftazidime with compound fixed at 4 μg/mL
# [16] = Pseudomonas aeruginosa, 18 h, read-out: MIC compounds of the invention alone
structure (smiles),measurement,setting,value
Cn1cc(C2=C[C@@H](CN)N3C[C@@H]2N(OS(=O)(=O)O)C3=O)cnc1=O (relative stereo) [Example 6],IC50,OXA-48,840 nM
same,IC50,SHV-1,340 nM
same,IC50,OXA-1,1200 nM
same,IC50,TEM-1,280 nM
same,IC50,AmpC (PAE),38 µM
same,IC50,KPC-2,5.1 µM
same,IC50,AmpC (P99),6.4 µM
same,MIC,"[1]; Escherichia coli, 18 h, read-out: MIC compounds of the invention alone",0.125 µg/mL
same,"MIC, combination of CAZ and compounds of the invention","[1]; MIC of ceftazidime with compound fixed at 4 μg/mL, strain 190317 (E. coli)",<0.125 µg/mL
same,IC50,OXA-15,68 nM
same,IC50,OXA-11,1600 nM
same,IC50,CTX-M-15,510 nM
same,"MIC, combination of CAZ and compounds of the invention",[2],<0.25 µg/mL
same,MIC,"[3]; Enterobacter cloacae, 18 h, read-out: MIC compounds of the invention alone",0.125 µg/mL
same,"MIC, combination of CAZ and compounds of the invention",[3]; [15],≤0.125 µg/mL
same,"MIC, combination of CAZ and compounds of the invention",[4]; [15],64 µg/mL
same,MIC,[4]; [16],32 µg/mL
same,MIC,"[5]; Klebsiella pneumoniae, BAA1898, read-out: MIC compounds of the invention alone",> 32 µg/mL
same,"MIC, combination of CAZ and compounds of the invention",[5]; [15],4 µg/mL
same,MIC,[6],> 32 µg/mL
same,"MIC, combination of CAZ and compounds of the invention",[7],<0.25 µg/mL
same,"MIC, combination of CAZ and compounds of the invention",[8],<0.25 µg/mL
same,"MIC, combination of CAZ and compounds of the invention",[9],<0.25 µg/mL
same,"MIC, combination of CAZ and compounds of the invention",[10]; [15],32 µg/mL
same,MIC,[10]; [16],16 µg/mL
same,MIC,"[11]; Klebsiella pneumoniae, 18 h, read-out: MIC compounds of the invention alone",> 32 µg/mL
same,"MIC, combination of CAZ and compounds of the invention",[11]; [15],4 µg/mL
same,"MIC, combination of CAZ and compounds of the invention",[12],<0.25 µg/mL
same,"MIC, combination of CAZ and compounds of the invention",[13],<0.25 µg/mL
same,"MIC, combination of CAZ and compounds of the invention",[14],<0.25 µg/mL
same,MIC,E. coli RGN238 (OXA-1),> 32 µg/mL
